Counter-ions that a name gives are not always drawn.

This assay has as its target T1, HIV integrase (Human immunodeficiency virus type 1 group M subtype B, UniProt P12497, F1332H).
T1 construct: HIV integrase full length gene (J. Virol., 67, 425-437 (1993)) in which phenylalanine at codon 185 was substituted by histidine; made in house; host or cells: Escherichia coli BL21(DE3)
Nature of the assay: Determination of enzyme (HIV integrase) inhibitory activity. It is filed as biochemical. To be noted: recombinant integrase protein (F185H), donor DNA/target DNA, absorbance at 450 nm. An outline of the steps:
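Full-length HIV integrase bearing F185H mutation, E. coli-expressed and purified, preincubated with compound on plate-bound biotinylated donor DNA for 60 min at 37 °C; digoxigenin-labelled target DNA then added for 10 min. Strand transfer detected by peroxidase anti-digoxigenin ELISA at 450 nm; IC50 from inhibition versus no-compound and no-enzyme controls.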
In general, IC50 refers to the concentration that inhibits the measured activity by half. As for `COCCOc1cc(Cc2cccc(Cl)c2F)cc2c(=O)c(C(=O)O)cn([C@H](CO)C(C)C)c12` [Example 3-4, 6-(3-chloro-2-fluorobenzyl)-1-((1S)-1-(hydroxymethyl)-2-methylpropyl)-8-(2-methoxyethoxy)-4-oxo-1,4-dihydroquinoline-3-carboxylic acid], the IC50 was determined as 4.5 nM.

As to `CC(C)[C@@H](CO)n1cc(C(=O)O)c(=O)c2cc(Cc3cccc(Cl)c3F)c(N3CC[C@H](O)C3)cc21` [Example 4-24, 6-(3-chloro-2-fluorobenzyl)-1-((1S)-1-(hydroxymethyl)-2-methylpropyl)-7-((3S)-3-hydroxypyrrolidin-1-yl)-4-oxo-1,4-dihydroquinoline-3-carboxylic acid], the IC50 turned out to be 12 nM.

In the case of `CC(C)[C@@H](CO)n1cc(C(=O)O)c(=O)c2cc(Cc3cccc(Cl)c3F)c(O[C@@H]3CCOC3)cc21` [Example 4-48, 6-(3-chloro-2-fluorobenzyl)-1-((1S)-1-(hydroxymethyl)-2-methylpropyl)-4-oxo-7-((3R)-tetrahydrofuran-3-yloxy)-1,4-dihydroquinoline-3-carboxylic acid], the IC50 worked out at 5.6 nM.

`COc1cc2c(cc1Cc1cccc(Cl)c1F)c(=O)c(C(=O)O)cn2[C@H](CO)[C@@H](C)OC` [Example 2-11, 6-(3-chloro-2-fluorobenzyl)-1-((1R,2R)-1-(hydroxymethyl)-2-methoxypropyl)-7-methoxy-4-oxo-1,4-dihydroquinoline-3-carboxylic acid]: the IC50 was 5 nM.

`CC(C)[C@@H](CO)n1cc(C(=O)O)c(=O)c2cc(Cc3cccc(Cl)c3F)cc(OCCN(C)C)c21` [Example 3-6, 6-(3-chloro-2-fluorobenzyl)-8-(2-(dimethylamino)ethoxy)-1-((1S)-1-(hydroxymethyl)-2-methylpropyl)-4-oxo-1,4-dihydroquinoline-3-carboxylic acid]: the IC50 worked out at 11 nM.

Turning to `CO[C@H](C)[C@@H](CO)n1cc(C(=O)O)c(=O)c2cc(Cc3cccc(Cl)c3F)ccc21` [Example 2-15, 6-(3-chloro-2-fluorobenzyl)-1-((1R,2R)-1-(hydroxymethyl)-2-methoxypropyl)-4-oxo-1,4-dihydroquinoline-3-carboxylic acid], the IC50 was 5.2 nM.

On to `CC(C)[C@@H](CO)n1cc(C(=O)O)c(=O)c2cc(Cc3cccc(Cl)c3F)c(N3CCNC(=O)C3)cc21` [Example 4-35, 6-(3-chloro-2-fluorobenzyl)-1-((1S)-1-(hydroxymethyl)-2-methylpropyl)-4-oxo-7-(3-oxopiperazin-1-yl)-1,4-dihydroquinoline-3-carboxylic acid], for which the IC50 was 6 nM.

Consider `CC(=O)N1CCN(c2cc3c(cc2Cc2cccc(Cl)c2F)c(=O)c(C(=O)O)cn3[C@H](CO)C(C)C)CC1` [Example 4-11, 7-(4-acetylpiperazin-1-yl)-6-(3-chloro-2-fluorobenzyl)-1-((1S)-1-(hydroxymethyl)-2-methylpropyl)-4-oxo-1,4-dihydroquinoline-3-carboxylic acid], for which the IC50 stood at 6.8 nM.

On to `CCN1CCN(c2cc3c(cc2Cc2cccc(Cl)c2F)c(=O)c(C(=O)O)cn3[C@H](CO)C(C)C)CC1` [Example 4-15, 6-(3-chloro-2-fluorobenzyl)-7-(4-ethylpiperazin-1-yl)-1-((1S)-1-(hydroxymethyl)-2-methylpropyl)-4-oxo-1,4-dihydroquinoline-3-carboxylic acid], for which the concentration for half-maximal inhibition (IC50) came to 11 nM.

In the case of `COc1cc2c(cc1Cc1cccc(Cl)c1F)c(=O)c(C(=O)O)cn2[C@H](CO)C1CCOCC1` [Example 2-1, 6-(3-chloro-2-fluorobenzyl)-1-((1S)-2-hydroxy-1-(tetrahydropyran-4-yl)ethyl)-7-methoxy-4-oxo-1,4-dihydroquinoline-3-carboxylic acid], the IC50 turned out to be 4.6 nM.

Consider `COC[C@@H](CO)n1cc(C(=O)O)c(=O)c2cc(Cc3cccc(Cl)c3F)c(OC)cc21` [Example 2-18, 6-(3-chloro-2-fluorobenzyl)-1-((1R)-1-(hydroxymethyl)-2-methoxyethyl)-7-methoxy-4-oxo-1,4-dihydroquinoline-3-carboxylic acid], for which the IC50 was found to be 6 nM.

Turning to `CC(C)[C@@H](CO)n1cc(C(=O)O)c(=O)c2cc(Cc3cccc(Cl)c3F)c(O[C@H]3CCN(C)C3)cc21` [Example 4-54, 6-(3-chloro-2-fluorobenzyl)-1-((1S)-1-(hydroxymethyl)-2-methylpropyl)-7-((3S)-1-methylpyrrolidin-3-yloxy)-4-oxo-1,4-dihydroquinoline-3-carboxylic acid trifluoroacetate], the IC50 amounted to 7.1 nM.

Regarding `CC(C)[C@@H](CO)n1cc(C(=O)O)c(=O)c2cc(Cc3cccc(Cl)c3F)c(OCc3cccnc3)cc21` [Example 4-61, 6-(3-chloro-2-fluorobenzyl)-1-((1S)-1-(hydroxymethyl)-2-methylpropyl)-4-oxo-7-(pyridin-3-ylmethoxy)-1,4-dihydroquinoline-3-carboxylic acid], the IC50 is 4.9 nM.

As to `CC(C)[C@H]1COc2cc(Cc3cccc(Cl)c3F)cc3c(=O)c(C(=O)O)cn1c23` [Example 5-1, (3S)-8-(3-chloro-2-fluorobenzyl)-3-isopropyl-6-oxo-2,3-dihydro-6H-1-oxa-3a-aza-phenalene-5-carboxylic acid], the IC50 amounted to 160 nM.

As to `COCCOc1cc2c(cc1Cc1cccc(Cl)c1F)c(=O)c(C(=O)O)cn2[C@H](CO)C(C)C` [Example 4-1, 6-(3-chloro-2-fluorobenzyl)-1-((1S)-1-(hydroxymethyl)-2-methylpropyl)-7-(2-methoxyethoxy)-4-oxo-1,4-dihydroquinoline-3-carboxylic acid], the IC50 was found to be 4.4 nM.

Regarding `COc1cc2c(cc1Cc1ccc(F)c(Cl)c1F)c(=O)c(C(=O)O)cn2[C@H](CO)C(C)C` [Example 1-5, 6-(3-chloro-2,4-difluorobenzyl)-1-((1S)-1-(hydroxymethyl)-2-methylpropyl)-7-methoxy-4-oxo-1,4-dihydroquinoline-3-carboxylic acid], the IC50 came to 3.3 nM.

Regarding `CC(C)[C@@H](CO)n1cc(C(=O)O)c(=O)c2cc(Cc3cccc(Cl)c3F)c(OCCCCO)cc21` [Example 4-5, 6-(3-chloro-2-fluorobenzyl)-7-(4-hydroxybutoxy)-1-((1S)-1-(hydroxymethyl)-2-methylpropyl)-4-oxo-1,4-dihydroquinoline-3-carboxylic acid], the IC50 was determined as 3.4 nM.

For the compound `CC(C)[C@@H](CO)n1cc(C(=O)O)c(=O)c2cc(Cc3cccc(Cl)c3F)c(OCCNS(C)(=O)=O)cc21` [Example 4-49, 6-(3-chloro-2-fluorobenzyl)-1-((1S)-1-(hydroxymethyl)-2-methylpropyl)-7-(2-(mesylamino)ethoxy)-4-oxo-1,4-dihydroquinoline-3-carboxylic acid], the IC50 is 5.1 nM.

In the case of `CC(C)[C@@H](CO)n1cc(C(=O)O)c(=O)c2cc(Cc3cccc(Cl)c3F)c(N3CCN[C@@H](C)C3)cc21` [Example 4-30, 6-(3-chloro-2-fluorobenzyl)-1-((1S)-1-(hydroxymethyl)-2-methylpropyl)-7-((3S)-3-methylpiperazin-1-yl)-4-oxo-1,4-dihydroquinoline-3-carboxylic acid], the concentration for half-maximal inhibition (IC50) was found to be 6.1 nM.

Consider `CC(C)[C@@H](CO)n1cc(C(=O)O)c(=O)c2cc(Cc3cccc(Cl)c3F)c(OC3CCN(S(C)(=O)=O)CC3)cc21` [Example 4-64, 6-(3-chloro-2-fluorobenzyl)-1-((1S)-1-(hydroxymethyl)-2-methylpropyl)-7-(1-mesylpiperidin-4-yloxy)-4-oxo-1,4-dihydroquinoline-3-carboxylic acid], for which the IC50 was determined as 6.6 nM.

On to `CC(C)[C@@H](CO)n1cc(C(=O)O)c(=O)c2cc(Cc3cccc(Cl)c3F)c(OCCN3CCN(C)CC3)cc21` [Example 4-51, 6-(3-chloro-2-fluorobenzyl)-1-((1S)-1-(hydroxymethyl)-2-methylpropyl)-7-(2-(4-methylpiperazin-1-yl)ethoxy)-4-oxo-1,4-dihydroquinoline-3-carboxylic acid ditrifluoroacetate], for which the IC50 stood at 6 nM.

As to `CNS(=O)(=O)COc1cc2c(cc1Cc1cccc(Cl)c1F)c(=O)c(C(=O)O)cn2[C@H](CO)C(C)C` [Example 4-3, 6-(3-chloro-2-fluorobenzyl)-1-((1S)-1-(hydroxymethyl)-2-methylpropyl)-7-((methylamino)sulfonylmethoxy)-4-oxo-1,4-dihydroquinoline-3-carboxylic acid], the IC50 is 4.7 nM.

As for `CC(C)[C@@H](CO)n1cc(C(=O)O)c(=O)c2cc(Cc3cccc(Cl)c3F)cc(OCCO)c21` [Example 3-1, 6-(3-chloro-2-fluorobenzyl)-8-(2-hydroxyethoxy)-1-((1S)-1-(hydroxymethyl)-2-methylpropyl)-4-oxo-1,4-dihydroquinoline-3-carboxylic acid], the IC50 came out at 5.1 nM.

As to `CC(C)[C@@H](CO)n1cc(C(=O)O)c(=O)c2cc(Cc3cccc(Cl)c3F)c(OCCN3CCNCC3)cc21` [Example 4-33, 6-(3-chloro-2-fluorobenzyl)-1-((1S)-1-(hydroxymethyl)-2-methylpropyl)-4-oxo-7-(2-(piperazin-1-yl)ethoxy)-1,4-dihydroquinoline-3-carboxylic acid dihydrochloride], the IC50 worked out at 5.7 nM.

As for `CC(C)[C@@H](CO)n1cc(C(=O)O)c(=O)c2cc(Cc3cccc(Cl)c3F)c(OCCCCN)cc21` [Example 4-34, 7-(4-aminobutoxy)-6-(3-chloro-2-fluorobenzyl)-1-((1S)-1-(hydroxymethyl)-2-methylpropyl)-4-oxo-1,4-dihydroquinoline-3-carboxylic acid hydrochloride], the IC50 came out at 3.9 nM.

With `COc1cc2c(cc1Cc1ccc(O)c(Cl)c1F)c(=O)c(C(=O)O)cn2[C@H](CO)C(C)C` [Example 1-4, 6-(3-chloro-2-fluoro-4-hydroxybenzyl)-1-((1S)-1-(hydroxymethyl)-2-methylpropyl)-7-methoxy-4-oxo-1,4-dihydroquinoline-3-carboxylic acid], the 50% inhibitory concentration (IC50) was determined as 25 nM.
